Reference: article PMC5578959, “Selective LRRK2 kinase inhibition reduces phosphorylation of endogenous Rab10 and Rab12 in human peripheral mononuclear blood cells” (Scientific Reports, 2017)
“And” between values parts separate entries of the source, which are not always exact repeats. Identical values can stand only once.

Columns and labels:
Test in all cases: KiNativ profiling in human PBMCs
Assay type in all cases: binding
p70S6K,p70S6Kb = conditions: ATP Loop
Description: (§1) Compounds were shipped to ActivX Technologies (San Diego, US) where LRRK2 target engagement and broad kinase profiling was performed using KiNativ™ procedures. Live cell treatment of human peripheral blood mononuclear cells (PBMCs) at two compound concentrations (1 µM and 0.1 µM) were used to evaluate and compare in vitro target engagement and kinase selectivity, respectively (see Supplementary File 1).

MAP3K1 = system: T1, MAP3K1; conditions: Lys2
T1 construct: purchased ActivX Technologies (KiNativ)
Description: as §1

CaMK2g = system: T2, CaMK2g; conditions: Lys1
T2 construct: purchased ActivX Technologies (KiNativ)
Description: as §1

GPRK6 = system: T3, GPRK6; conditions: Lys2
T3 construct: purchased ActivX Technologies (KiNativ)
Description: as §1

OSR1 = system: T4, OSR1; conditions: Lys2
T4 construct: purchased ActivX Technologies (KiNativ)
Description: as §1

RSK1 domain2 = system: T5, RSK1 domain2; conditions: Lys2
T5 construct: RSK1 domain2; purchased ActivX Technologies (KiNativ)
Description: as §1

CDC2 = system: T6, CDC2; conditions: Lys2
T6 construct: purchased ActivX Technologies (KiNativ)
Description: as §1

RSK2 domain1 = system: T7, RSK2 domain1
T7 construct: RSK2 domain1; purchased ActivX Technologies (KiNativ)
Description: as §1

MARK2 = system: T8, MARK2; conditions: Lys1
T8 construct: purchased ActivX Technologies (KiNativ)
Description: as §1

JAK1 domain1 = system: T9, JAK1 domain1; conditions: Other
T9 construct: JAK1 domain1; purchased ActivX Technologies (KiNativ)
Description: as §1

PKD2 = system: T10, PKD2; conditions: Lys1
T10 construct: purchased ActivX Technologies (KiNativ)
Description: as §1

YANK3 = system: T11, YANK3; conditions: Lys2
T11 construct: purchased ActivX Technologies (KiNativ)
Description: as §1

CaMKK2 = system: T12, CaMKK2; conditions: Lys2
T12 construct: purchased ActivX Technologies (KiNativ)
Description: as §1

Wnk1,Wnk2 = conditions: ATP Loop
Description: as §1

Erk1 = system: T13, Erk1; conditions: Lys2
T13 construct: purchased ActivX Technologies (KiNativ)
Description: as §1

LATS1 = system: T14, LATS1
T14 construct: purchased ActivX Technologies (KiNativ)
Description: as §1

eEF2K = system: T15, eEF2K; conditions: ATP
T15 construct: purchased ActivX Technologies (KiNativ)
Description: as §1

PITSLRE = system: T16, PITSLRE; conditions: Lys2
T16 construct: purchased ActivX Technologies (KiNativ)
Description: as §1

DGKA = system: T17, DGKA; conditions: ATP
T17 construct: purchased ActivX Technologies (KiNativ)
Description: as §1

CSK = system: T18, CSK
T18 construct: purchased ActivX Technologies (KiNativ)
Description: as §1

STLK3 = system: T19, STLK3; conditions: Lys2
T19 construct: purchased ActivX Technologies (KiNativ)
Description: as §1

PIK3C3 = system: T20, PIK3C3; conditions: ATP
T20 construct: purchased ActivX Technologies (KiNativ)
Description: as §1

CHK2 = system: T21, CHK2
T21 construct: purchased ActivX Technologies (KiNativ)
Description: as §1

p70S6K = system: T22, p70S6K; conditions: Lys2
T22 construct: purchased ActivX Technologies (KiNativ)
Description: as §1

PRPK = system: T23, PRPK; conditions: ATP Loop
T23 construct: purchased ActivX Technologies (KiNativ)
Description: as §1

CDK11,CDK8 = conditions: Lys2
Description: as §1

LRRK2 = system: T24, LRRK2; conditions: Lys2
T24 construct: purchased ActivX Technologies (KiNativ)
Description: as §1

GSK3B = system: T25, GSK3B; conditions: Lys2
T25 construct: purchased ActivX Technologies (KiNativ)
Description: as §1

PCTAIRE1,PCTAIRE3 = conditions: Lys2
Description: as §1

PCTAIRE2 = system: T26, PCTAIRE2; conditions: Lys2
T26 construct: purchased ActivX Technologies (KiNativ)
Description: as §1

IRAK3 = system: T27, IRAK3; conditions: Lys1
T27 construct: purchased ActivX Technologies (KiNativ)
Description: as §1

IRAK4 = system: T28, IRAK4
T28 construct: purchased ActivX Technologies (KiNativ)
Description: as §1

MAP3K2 = system: T29, MAP3K2; conditions: Lys1
T29 construct: purchased ActivX Technologies (KiNativ)
Description: as §1

MLK3 = system: T30, MLK3; conditions: Lys2
T30 construct: purchased ActivX Technologies (KiNativ)
Description: as §1

RSK1,RSK2,RSK3 domain1 = conditions: Lys2
Description: as §1

ACK = system: T31, ACK; conditions: Lys1
T31 construct: purchased ActivX Technologies (KiNativ)
Description: as §1

In the case of `Cc1cccc(-c2cc(Nc3ccn(C)n3)nc3[nH]cc(C#N)c23)c1` [Lu AF58786], the Inhibition (p70S6K,p70S6Kb; 0.1µM) is reported as 3.7%, the Inhibition (p70S6K,p70S6Kb; 1µM) is reported as -2.7% and the Inhibition (MAP3K1; 0.1µM) is reported as 9.1%. For the same molecule, the Inhibition (MAP3K1; 1µM) was 0.247%, the Inhibition (CaMK2g; 0.1µM) was 3.3% and the Inhibition (CaMK2g; 1µM) was -7.2%. It also gave an Inhibition (GPRK6; 0.1µM) of -65.0%, an Inhibition (GPRK6; 1µM) of -34.1% and an Inhibition (OSR1; 0.1µM) of 19.8%. For the same molecule, the Inhibition (OSR1; 1µM) was -4.1%, the Inhibition (RSK1 domain2; 0.1µM) was 11.6% and the Inhibition (RSK1 domain2; 1µM) was 5.6%. For the same molecule, the Inhibition (CDC2; 0.1 µM, DLKPQNLLIDDK) was -19.4%, the Inhibition (CDC2; 0.1 µM, DLKPQNLLIDDKGTIK) was 5.9% and the Inhibition (CDC2; 1 µM, DLKPQNLLIDDK) was -27.3%. The Inhibition (CDC2; 1 µM, DLKPQNLLIDDKGTIK) was 6.8%, the Inhibition (RSK2 domain1; 0.1µM, ATP Loop) was 26.3% and the Inhibition (RSK2 domain1; 0.1µM, Activation Loop) was 16.6%. For the same molecule, the Inhibition (RSK2 domain1; 0.1µM, Lys2) was 1.6%, the Inhibition (RSK2 domain1; 1µM, ATP Loop) was 13.9% and the Inhibition (RSK2 domain1; 1µM, Activation Loop) was 32.7%. For the same molecule, the Inhibition (RSK2 domain1; 1µM, Lys2) was 27.1%, the Inhibition (MARK2; 0.1µM) was -6.2% and the Inhibition (MARK2; 1µM) was -21.2%. The Inhibition (JAK1 domain1; 0.1 µM) was 19.3%, the Inhibition (JAK1 domain1; 1 µM) was 55.0% and the Inhibition (PKD2; 0.1µM) was 14.5%. For the same molecule, the Inhibition (PKD2; 1µM) was 15.3%, the Inhibition (YANK3; 0.1µM) was 11.1% and the Inhibition (YANK3; 1µM) was -8.5%. For the same molecule, the Inhibition (CaMKK2; 0.1µM) was 13.8%, the Inhibition (CaMKK2; 1µM) was 1.3% and the Inhibition (Wnk1,Wnk2; 0.1µM) was 12.8%. For the same molecule, the Inhibition (Wnk1,Wnk2; 1µM) was 3.9%, the Inhibition (Erk1; 0.1µM) was 2.3% and the Inhibition (Erk1; 1µM) was 1.5%. The Inhibition (LATS1; 0.1µM, Lys1) was 5.7%, the Inhibition (LATS1; 0.1µM, Lys2) was -2.7% and the Inhibition (LATS1; 1µM, Lys1) was 11.6%. For the same molecule, the Inhibition (eEF2K; 0.1µM) was 12.2%, the Inhibition (eEF2K; 1µM) was 6.3% and the Inhibition (PITSLRE; 0.1µM) was 2.7%. The Inhibition (PITSLRE; 1µM) was -9.8%, the Inhibition (DGKA; 0.1µM) was 1.1% and the Inhibition (DGKA; 1µM) was -1.9%. It also gave an Inhibition (CSK; 0.1µM, Activation Loop) of 7.6%, an Inhibition (CSK; 0.1µM, Lys1) of 16.0% and an Inhibition (CSK; 1µM, Activation Loop) of -1.7%. It also gave an Inhibition (CSK; 1µM, Lys1) of 6.8%, an Inhibition (STLK3; 0.1µM) of 22.4% and an Inhibition (STLK3; 1µM) of -36.2%. For the same molecule, the Inhibition (PIK3C3; 0.1µM) was 1.5%, the Inhibition (PIK3C3; 1µM) was -10.0% and the Inhibition (CHK2; 0.1µM, Lys1) was 15.1%. It also gave an Inhibition (CHK2; 0.1µM, Lys2) of 2.3%, an Inhibition (CHK2; 1µM, Lys1) of 2.8% and an Inhibition (CHK2; 1µM, Lys2) of -16.2%. For the same molecule, the Inhibition (p70S6K; 0.1µM) was -7.6%, the Inhibition (p70S6K; 1µM) was -5.7% and the Inhibition (PRPK; 0.1µM) was 1.0%. The Inhibition (PRPK; 1µM) was 8.9%, the Inhibition (CDK11,CDK8; 0.1µM) was -20.3% and the Inhibition (CDK11,CDK8; 1µM) was -2.0%. The Inhibition (LRRK2; 0.1 µM) was 83% and 83.4%, the Inhibition (LRRK2; 1 µM) was 93% and 93.4% and the Inhibition (GSK3B; 0.1µM) was 9.9%. For the same molecule, the Inhibition (GSK3B; 1µM) was 21.4%, the Inhibition (PCTAIRE1,PCTAIRE3; 0.1µM) was 5.6% and the Inhibition (PCTAIRE1,PCTAIRE3; 1µM) was -11.1%. It also gave an Inhibition (PCTAIRE2; 0.1µM) of 18.1%, an Inhibition (PCTAIRE2; 1µM) of -0.164% and an Inhibition (IRAK3; 0.1µM) of -25.6%. The Inhibition (IRAK3; 1µM) was 17.0%, the Inhibition (IRAK4; 0.1µM, Lys1) was 16.2% and the Inhibition (IRAK4; 0.1µM, Lys2) was 7.0%. The Inhibition (IRAK4; 1µM, Lys1) was 13.3%, the Inhibition (IRAK4; 1µM, Lys2) was 8.9% and the Inhibition (MAP3K2; 0.1µM) was 26.8%. The Inhibition (MAP3K2; 1µM) was 18.5%, the Inhibition (MLK3; 0.1µM) was 1.5% and the Inhibition (MLK3; 1µM) was 8.8%. It also gave an Inhibition (RSK1,RSK2,RSK3 domain1; 0.1µM) of 14.1%, an Inhibition (RSK1,RSK2,RSK3 domain1; 1µM) of 29.7% and an Inhibition (ACK; 0.1µM) of -14.9%. For the same molecule, the Inhibition (ACK; 1µM) was -10.3%.
